Measurements from US11807644B2 (PMV Pharmaceuticals, Inc., priority 2020, dated 2023).

These compounds were tested against T1, recombinant His-tag Y220C p53 DBD protein (Homo sapiens, UniProt P04637, Y220C) (assay: In vitro DNA binding activity assay (TR-FRET): binding of His-tag Y220C p53 DBD to biotin-labeled consensus DNA). Details: SC150 = concentration to increase DNA binding by […], His-tag Y220C p53 DBD, biotin-labeled consensus DNA.
T1 construct: recombinant His-tag Y220C p53 DBD protein (amino acids #˜94-312)
Type: biochemical

Structure (SMILES)	Y220C SC150 (μM)
COC[C@@H]1CCCN1c1cc(C(=O)NCc2nc(-c3cc4c(N[C@@H]5CCN(C)C[C@@H]5F)cccc4n3CC(F)(F)F)no2)cs1 [Compound 537B, N-{[3-(4-{[(3S,4R)-3-fluoro-1-methylpiperidin-4-yl]amino}-1-(2,2,2-trifluoroethyl)-1H-indol-2-yl)-1,2,4-oxadiazol-5-yl]methyl}-5-[(2S)-2-(methoxymethyl)pyrrolidin-1-yl]thiophene-3-carboxamide]	* (* = 0 μM ≤ SC150 < 0.1 μM)
COCCN(C)c1nc(C(=O)NCc2nc(-c3cc4c(N[C@@H]5CCN(C)C[C@@H]5F)cccc4n3CC(F)(F)F)no2)cs1 [Compound 536B, N-{[3-(4-{1[(3S,4R)-3-fluoro-1-methylpiperidin-4-yl]amino}-1-(2,2,2-trifluoroethyl)-1H-indol-2-yl)-1,2,4-oxadiazol-5-yl]methyl}-2-[(2-methoxyethyl)(methyl)amino]-1,3-thiazole-4-carboxamide]	* (* = 0 μM ≤ SC150 < 0.1 μM)
CC(C)(C)n1ccc(C(=O)NCc2nc(-c3cc4c(NC5CCn6nccc6C5)cccc4n3CC(F)(F)F)no2)c1 (centres unmarked) [Compound 332B, 1-tert-butyl-N-({3-[4-({4H,5H,6H,7H-pyrazolo[1,5-a]pyridin-5-yl}amino)-1-(2,2,2-trifluoroethyl)-1H-indol-2-yl]-1,2,4-oxadiazol-5-yl}methyl)-1H-pyrrole-3-carboxamide]	* (* = 0 μM ≤ SC150 < 0.1 μM)
CC(C)c1cc(C(=O)NCc2nc(-c3cc4c(N[C@@H]5CCN(C)C[C@@H]5F)cccc4n3CC(F)(F)F)no2)co1 [Compound 526B, N-{[3-(4-{[(3S,4R)-3-fluoro-1-methylpiperidin-4-yl]amino}-1-(2,2,2-trifluoroethyl)-1H-indol-2-yl)-1,2,4-oxadiazol-5-yl]methyl}-5-(propan-2-yl)furan-3-carboxamide]	* (* = 0 μM ≤ SC150 < 0.1 μM)
CN1CC[C@@H](Nc2cccc3c2cc(-c2noc(CNC(=O)c4cnn(Cc5ccccc5)c4)n2)n3CC(F)(F)F)[C@@H](F)C1 [Compound 300B, 1-benzyl-N-{[3-(4-{[(3S,4R)-3-fluoro-1-methylpiperidin-4-yl]amino}-1-(2,2,2-trifluoroethyl)-1H-indol-2-yl)-1,2,4-oxadiazol-5-yl]methyl}-1H-pyrazole-4-carboxamide]	* (* = 0 μM ≤ SC150 < 0.1 μM)
CC(CF)n1cc(C(=O)NCc2nc(-c3cc4c(N[C@@H]5CCN(C)C[C@@H]5F)cccc4n3CC(F)(F)F)no2)cn1 (stereo partly drawn) [Compound 303B, N-{[3-(4-{[(3S,4R)-3-fluoro-1-methylpiperidin-4-yl]amino}-1-(2,2,2-trifluoroethyl)-1H-indol-2-yl)-1,2,4-oxadiazol-5-yl]methyl}-1-(1-fluoropropan-2-yl)-1H-pyrazole-4-carboxamide]	* (* = 0 μM ≤ SC150 < 0.1 μM)
CN1CC[C@@H](Nc2cccc3c2cc(-c2noc(CNC(=O)c4cccs4)n2)n3CC(F)(F)F)[C@@H](F)C1 (racemic) [Compound 175B, (+/−)-N-{[3-(4-{[(3R,4S)-3-fluoro-1-methylpiperidin-4-yl]amino}-1-(2,2,2-trifluoroethyl)-1H-indol-2-yl)-1,2,4-oxadiazol-5-yl]methyl}thiophene-2-carboxamide]	* (* = 0 μM ≤ SC150 < 0.1 μM)
CCN1CC[C@@H](Nc2cccc3c2cc(-c2noc(CNC(=O)c4ccn(CCF)c4)n2)n3CC(F)(F)F)[C@@H](F)C1 [Compound 293B, N-{[3-(4-{[(3S,4R)-1-ethyl-3-fluoropiperidin-4-yl]amino}-1-(2,2,2-trifluoroethyl)-1H-indol-2-yl)-1,2,4-oxadiazol-5-yl]methyl}-1-(2-fluoroethyl)-1H-pyrrole-3-carboxamide]	* (* = 0 μM ≤ SC150 < 0.1 μM)
COCCn1cncc1C(=O)NCc1nc(-c2cc3c(N[C@@H]4CCN(C)C[C@@H]4F)cccc3n2CC(F)(F)F)no1 [Compound 268B, N-{[3-(4-{[(3S,4R)-3-fluoro-1-methylpiperidin-4-yl]amino}-1-(2,2,2-trifluoroethyl)-1H-indol-2-yl)-1,2,4-oxadiazol-5-yl]methyl}-1-(2-methoxyethyl)-1H-imidazole-5-carboxamide]	* (* = 0 μM ≤ SC150 < 0.1 μM)
COc1ccc(NCc2nc(-c3cc4c(N[C@@H]5CCN(C)C[C@@H]5F)cccc4n3CC(F)(F)F)no2)nc1 [Compound 378B, N-[(3S,4R)-3-fluoro-1-methylpiperidin-4-yl]-2-(5-{[(5-methoxypyridin-2-yl)amino]methyl}-1,2,4-oxadiazol-3-yl)-1-(2,2,2-trifluoroethyl)-1H-indol-4-amine]	* (* = 0 μM ≤ SC150 < 0.1 μM)
CN1CC[C@@H](Nc2cccc3c2cc(-c2noc(CNC(=O)c4cn(C5(C)CCOCC5)cn4)n2)n3CC(F)(F)F)[C@@H](F)C1 [Compound 433B, N-{[3-(4-{[(3S,4R)-3-fluoro-1-methylpiperidin-4-yl]amino}-1-(2,2,2-trifluoroethyl)-1H-indol-2-yl)-1,2,4-oxadiazol-5-yl]methyl}-1-(4-methyloxan-4-yl)-1H-imidazole-4-carboxamide]	* (* = 0 μM ≤ SC150 < 0.1 μM)
CN1CC[C@@H](Nc2cccc3c2cc(-c2noc(CNC(=O)c4cnc(C5(C)CCOCC5)s4)n2)n3CC(F)(F)F)[C@@H](F)C1 [Compound 473B, N-{[3-(4-{[(3S,4R)-3-fluoro-1-methylpiperidin-4-yl]amino}-1-(2,2,2-trifluoroethyl)-1H-indol-2-yl)-1,2,4-oxadiazol-5-yl]methyl}-2-(4-methyloxan-4-yl)-1,3-thiazole-5-carboxamide]	* (* = 0 μM ≤ SC150 < 0.1 μM)
CC(C)(C)n1ccc(C(=O)NCc2nc(-c3cc4c(NC5CCn6ccnc6C5)cccc4n3CC(F)(F)F)no2)c1 (centres unmarked) [Compound 366B, 1-tert-butyl-N-({3-[4-({5H,6H, 7H,8H-imidazo[1,2-a]pyridin-7-yl}amino)-1-(2,2,2-trifluoroethyl)-1H-indol-2-yl]-1,2,4-oxadiazol-5-yl}methyl)-1H-pyrrole-3-carboxamide]	* (* = 0 μM ≤ SC150 < 0.1 μM)
CN1CCC(n2cc(C(=O)NCc3nc(-c4cc5c(N[C@@H]6CCN(C)C[C@@H]6F)cccc5n4CC(F)(F)F)no3)cn2)C1 (stereo partly drawn) [Compound 349B, N-{[3-(4-{1[(3S,4R)-3-fluoro-1-methylpiperidin-4-yl]amino}-1-(2,2,2-trifluoroethyl)-1H-indol-2-yl)-1,2,4-oxadiazol-5-yl]methyl}-1-(1-methylpyrrolidin-3-yl)-1H-pyrazole-4-carboxamide]	* (* = 0 μM ≤ SC150 < 0.1 μM)
CN1CC[C@@H](Nc2cccc3c2cc(-c2noc(CNC(=O)c4csc(N5CCOCC5)n4)n2)n3CC(F)(F)F)[C@@H](F)C1 [Compound 465B, N-{[3-(4-{[(3S,4R)-3-fluoro-1-methylpiperidin-4-yl]amino}-1-(2,2,2-trifluoroethyl)-1H-indol-2-yl)-1,2,4-oxadiazol-5-yl]methyl}-2-(morpholin-4-yl)-1,3-thiazole-4-carboxamide]	* (* = 0 μM ≤ SC150 < 0.1 μM)
CN1CC[C@@H](Nc2cccc3c2cc(-c2noc(CNC(=O)c4ccc(C(C)(C)C#N)s4)n2)n3CC(F)(F)F)[C@@H](F)C1 [Compound 442B, 5-(1-cyano-1-methylethyl)-N-{[3-(4-{[(3S,4R)-3-fluoro-1-methylpiperidin-4-yl]amino}-1-(2,2,2-trifluoroethyl)-1H-indol-2-yl)-1,2,4-oxadiazol-5-yl]methyl}thiophene-2-carboxamide]	* (* = 0 μM ≤ SC150 < 0.1 μM)
Cn1ccc(C(=O)NCc2nc(-c3cc4c(N[C@H]5CCN(C(C)(C)C)C[C@H]5F)cccc4n3CC(F)(F)F)no2)c1 [Compound 398B, N-{[3-(4-{[(3R,4S)-1-tert-butyl-3-fluoropiperidin-4-yl]amino}-1-(2,2,2-trifluoroethyl)-1H-indol-2-yl)-1,2,4-oxadiazol-5-yl]methyl}-1-methyl-1H-pyrrole-3-carboxamide]	* (* = 0 μM ≤ SC150 < 0.1 μM)
CC(C)c1nc(C(=O)NCc2nc(-c3cc4c(N[C@@H]5CCN(C)C[C@@H]5F)cccc4n3CC(F)(F)F)no2)co1 [Compound 430B, N-{[3-(4-{[(3S,4R)-3-fluoro-1-methylpiperidin-4-yl]amino}-1-(2,2,2-trifluoroethyl)-1H-indol-2-yl)-1,2,4-oxadiazol-5-yl]methyl}-2-(propan-2-yl)-1,3-oxazole-4-carboxamide]	* (* = 0 μM ≤ SC150 < 0.1 μM)
CN1CC[C@@H](Nc2cccc3c2cc(-c2noc(CNC(=O)c4ccn(C)c4)n2)n3CC(F)(F)F)[C@@H](F)C1 [Compound 181B, N-{[3-(4-{[(3S,4R)-3-fluoro-1-methylpiperidin-4-yl]amino}-1-(2,2,2-trifluoroehyl)-1H-indol-2-yl)-1,2,4-oxadiazol-5-yl]methyl}-1-methyl-1H-pyrrole-3-carboxamide]	* (* = 0 μM ≤ SC150 < 0.1 μM)

Same assay, conditions: concentration to increase DNA binding by […], incubated at either 27° C. or 29° C. for 60 min

Structure (SMILES)	SC150 (μM)
O=S1(=O)CCC(Nc2cccc3c2cc(-c2ccc(CN4CCOCC4)cc2)n3CC(F)(F)F)CC1 [Compound 24A, 4-[(2-{4-[(morpholin-4-yl)methyl]phenyl}-1-(2,2,2-trifluoroethyl)-1H-indol-4-yl)amino]-1λ^6-thiane-1,1-dione]	+++ (+++ = 5 μM ≤ SC150 < 10 μM)
Cc1ccc(NCc2ccc(-c3cc4cc(CNC5CCN(C)CC5)ccc4n3CC(F)(F)F)cc2)cn1 [Compound 35A, 6-methyl-N-{[4-(5-{[(1-methylpiperidin-4-yl)amino]methyl}-1-(2,2,2-trifluoroethyl)-1H-indol-2-yl)phenyl]methyl}pyridin-3-amine]	+++ (+++ = 5 μM ≤ SC150 < 10 μM)
O=C(O)c1cccc(-c2cc3c(NC4CCS(=O)(=O)CC4)cccc3n2CC(F)(F)F)c1 [Compound 20A, 3-{4-[(1,1-dioxo-1λ^6-thian-4-yl)amino]-1-(2,2,2-trifluoroethyl)-1H-indol-2-yl}benzoic acid]	++++ (++++ = 10 μM ≤ SC150 < 35 μM)
COCC(O)CN1CCC(Nc2cccc3c2cc(-c2ccc4c[nH]nc4c2)n3CC(F)(F)F)CC1 (centres unmarked) [Compound 48A, 1-(4-{[2-(2H-indazol-6-yl)-1-(2,2,2-trifluoroethyl)-1H-indol-4-yl]amino}piperidin-1-yl)-3-methoxypropan-2-ol]	+++ (+++ = 5 μM ≤ SC150 < 10 μM)
